The text below walks through data of ChEMBL document CHEMBL3046502, “In vitro antimicrobial and antitubercular studies of novel 6-substituted (pyrrolidin-1-yl)-2(1H)-pyridinones” (2012).

The MIC is the lowest concentration that inhibits growth of the organism. A lower MIC goes with greater potency.

Converted amounts (≈) assume the structure as drawn. A value given as a limit tells only on which side of the number the result lay.

What all share (format): functional
Assay [1] deals with Aspergillus clavatus. Kind of assay: Antimicrobial activity against Aspergillus clavatus MTCC 1323.
The test system of assay [2] is Staphylococcus aureus. In words: Antimicrobial activity against Staphylococcus aureus MTCC 96 by broth microdilution method.
The test system of assay [3] is Streptococcus pyogenes. In words: Antimicrobial activity against Streptococcus pyogenes MTCC 443 by broth microdilution method. Background: Broth dilution looks for growth in wells or tubes with falling amounts of substance.
Assay [4] has as its system Aspergillus niger. In words: Antimicrobial activity against Aspergillus niger MTCC 282.
Assay [5] deals with Mycobacterium tuberculosis. Kind of assay: Antimicrobial activity against Mycobacterium tuberculosis H37Rv. Particulars: for MIC: Mycobacterium tuberculosis, H37Rv.
In assay [6] the test system is Pseudomonas aeruginosa. Kind of assay: Antimicrobial activity against Pseudomonas aeruginosa MTCC 2488 by broth microdilution method.
Assay [7] relates to Escherichia coli. In words: Antimicrobial activity against Escherichia coli MTCC 442 by broth microdilution method.
The subject of assay [8] is Candida albicans. Kind of assay: Antimicrobial activity against Candida albicans MTCC 227.

Consider `COc1ccc(-c2cc(N3CCCC3)n(-c3cccc(Cl)c3)c(=O)c2Cn2cncn2)cc1`, for which the minimum inhibitory concentration (MIC) in assay [1] came to 500 µg/mL (≈ 1080 µM); in assay [2], 250 µg/mL (≈ 541 µM); in assay [3], 200 µg/mL (≈ 433 µM); in assay [4], 250 µg/mL (≈ 541 µM); in assay [5], 500 µg/mL (≈ 1080 µM); in assay [6] it was 100 µg/mL (≈ 216 µM). Moreover, the MIC in assay [7] worked out at 100 µg/mL (≈ 216 µM); in assay [8], 200 µg/mL (≈ 433 µM). In addition, the “inhibition (INH)” value in assay [5] was determined as 98%.
For the compound `CO[C@H]1/C=C/O[C@@]2(C)Oc3c(C)c(O)c4c(O)c(c(/C=N/N5CCN(C)CC5)c(O)c4c3C2=O)NC(=O)/C(C)=C\C=C\[C@H](C)[C@H](O)[C@@H](C)[C@@H](O)[C@@H](C)[C@H](OC(C)=O)[C@@H]1C` [RIFAMPIN], in assay [5], the “inhibition (INH)” value was 98% and the MIC is 40 µg/mL (≈ 48.6 µM).
`COc1ccc(-c2cc(N3CCCC3)n(-c3cccc(Cl)c3)c(=O)c2/N=N/c2ccc(Cl)cc2[N+](=O)[O-])cc1`: the MIC worked out at 200 µg/mL (≈ 354 µM) in assay [1]; 250 µg/mL (≈ 443 µM) in assay [2]; 250 µg/mL (≈ 443 µM) in assay [3]; 200 µg/mL (≈ 354 µM) in assay [4]; 1000 µg/mL (≈ 1770 µM) in assay [5]; 500 µg/mL (≈ 886 µM) in assay [6]. Also, the results for the MIC in assay [7] and in assay [8] were 250 µg/mL (≈ 443 µM) and 500 µg/mL (≈ 886 µM), respectively. The “inhibition (INH)” value in assay [5] was 98%.
For the compound `COc1ccc(-c2cc(=O)n(-c3cccc(Cl)c3)c(N3CCCC3)c2/N=N/c2ccc(Cl)cc2[N+](=O)[O-])cc1`, the MIC in assay [1] amounted to 200 µg/mL (≈ 354 µM); in assay [2] it was 250 µg/mL (≈ 443 µM); in assay [3], 250 µg/mL (≈ 443 µM); in assay [4], 200 µg/mL (≈ 354 µM); in assay [5], 500 µg/mL (≈ 886 µM); in assay [6] it was 500 µg/mL (≈ 886 µM). Also, the MIC in assay [7] and in assay [8] was 250 µg/mL (≈ 443 µM) throughout. Moreover, the “inhibition (INH)” value in assay [5] was determined as 98%.
With `COc1ccc(-c2cc(N3CCCC3)n(-c3cccc(Cl)c3)c(=O)c2)cc1`, the MIC amounted to 1000 µg/mL (≈ 2630 µM) in assay [1]; 500 µg/mL (≈ 1310 µM) in assay [2]; 500 µg/mL (≈ 1310 µM) in assay [3]; 1000 µg/mL (≈ 2630 µM) in assay [4]; 500 µg/mL (≈ 1310 µM) in assay [5]; 500 µg/mL (≈ 1310 µM) in assay [6]. For the same compound, the results for the MIC in assay [7] and in assay [8] were 250 µg/mL (≈ 656 µM) and 1000 µg/mL (≈ 2630 µM), respectively. Besides, in assay [5], the “inhibition (INH)” value turned out to be 99%.
On to `COc1ccc(-c2cc(=O)n(-c3cccc(Cl)c3)c(N3CCCC3)c2/N=N/c2cc(Cl)ccc2Cl)cc1`, for which the MIC is more than 1000 µg/mL in assay [1]; 500 µg/mL (≈ 903 µM) in assay [2]; 500 µg/mL (≈ 903 µM) in assay [3]; more than 1000 µg/mL in assay [4]; 100 µg/mL (≈ 181 µM) in assay [5]; 500 µg/mL (≈ 903 µM) in assay [6]. The values for the MIC in assay [7] and in assay [8] were 100 µg/mL (≈ 181 µM) and 1000 µg/mL (≈ 1810 µM), respectively. Also, the “inhibition (INH)” value in assay [5] is 99%.
`COc1ccc(-c2cc(N3CCCC3)n(-c3cccc(Cl)c3)c(=O)c2/N=N/c2ccc(Cl)c(Cl)c2)cc1`: the MIC in assay [1] was determined as 1000 µg/mL (≈ 1810 µM); in assay [2], 200 µg/mL (≈ 361 µM); in assay [3] it was 500 µg/mL (≈ 903 µM); in assay [4], 500 µg/mL (≈ 903 µM); in assay [5] it was 250 µg/mL (≈ 451 µM); in assay [6], 200 µg/mL (≈ 361 µM). Also, the MIC in assay [7] came to 62.5 µg/mL (≈ 113 µM); in assay [8] it was 100 µg/mL (≈ 181 µM). Also, the “inhibition (INH)” value in assay [5] came to 99%.
As for `COc1ccc(-c2cc(=O)n(-c3cccc(Cl)c3)c(N3CCCC3)c2/N=N/c2ccc(Cl)cc2)cc1`, the MIC in assay [1] turned out to be 500 µg/mL (≈ 963 µM); in assay [2], 500 µg/mL (≈ 963 µM); in assay [3] it was 500 µg/mL (≈ 963 µM); in assay [4], 500 µg/mL (≈ 963 µM); in assay [6], 500 µg/mL (≈ 963 µM); in assay [7], 100 µg/mL (≈ 193 µM). The compound further registered an MIC in assay [8] of 100 µg/mL (≈ 193 µM).
Consider `COc1ccc(-c2cc(N3CCCC3)n(-c3cccc(Cl)c3)c(=O)c2/N=N/c2ccccc2[N+](=O)[O-])cc1`, for which the MIC stood at 500 µg/mL (≈ 943 µM) in assay [1]; 100 µg/mL (≈ 189 µM) in assay [2]; 100 µg/mL (≈ 189 µM) in assay [3]; 500 µg/mL (≈ 943 µM) in assay [4]; 200 µg/mL (≈ 377 µM) in assay [6]; 100 µg/mL (≈ 189 µM) in assay [7]. It took 500 µg/mL (≈ 943 µM) to inhibit growth in assay [8] (MIC).
For `COc1ccc(-c2cc(N3CCCC3)n(-c3cccc(Cl)c3)c(=O)c2/N=N/c2cccc(C)c2)cc1`, the MIC came to 500 µg/mL (≈ 1000 µM) in assay [1]; 150 µg/mL (≈ 301 µM) in assay [2]; 200 µg/mL (≈ 401 µM) in assay [3]; 500 µg/mL (≈ 1000 µM) in assay [4]; 250 µg/mL (≈ 501 µM) in assay [6]; 250 µg/mL (≈ 501 µM) in assay [7]. The compound further came in with an MIC in assay [8] of 500 µg/mL (≈ 1000 µM).
